In patent US4962277A, “Deletion analogues of magainin peptides” (priority 1988, dated 1990):
Where two headings read alike, the source gives them in different places. No end group written: not given here.

Columns and labels:
human red blood cells = conditions: pH 7
Escherichia coli = type: cell-based; conditions: six hours; for % Inhibit, E. coli: 1.0×10^6 CFU/ml; for Effective Growth Inhibition Conc., E. coli: concentration at which the reported % inhibition (greater than 80%) was found, 100% at next higher concentration if below 100%
Protocol: (§1) Antimicrobial assays were carried out in 96 -well tissue culture plates. Each well was incubated with a given microorganism suspended in LB medium (Escherichia coli, and Staphylococcus epidermis or YTB medium (Candida albicans). Upon the addition of the peptides or their deletion analogues, (dissolved in 1×PBS, pH 7.0) each well contained a final cell density of 1.0×10^6 colony forming units (CFU)/ml. The final peptide concentrations used were 100 μg/ml., 75.0 μg/ml, 50.0 μg/ml, 25 μg/ml, and 10 μg/ml Concentrations of up to 500 μg/ml, however, were employed against C. albicans.
(§2) Addition of peptides to the wells was defined as time zero. At six hours, the plates were placed in a Titertek Multiskan apparatus and the O.D.620 determined. The plates as well as the initial innoculum were incubated at 37° C.
(§3) Five wells per plate contained media alone. while five others contained medium plus cells. These controls were used to eliminate the possibility of media contamination while providing a measure of uninhibited growth of the microorganisms. The measurements of 1/(change in optical in density) for the wells containing either the peptides or their deletion analogues in the above-mentioned varying concentrations with the colony forming units of E. coli or S. epidermis are shown in FIGS. 1 and 2. FIG. 1 is a graph of the measurements of 1/(change in optical density) for wells containing Magainin I or Magainin II peptides or their deletion analogues and E. coli. FIG. 1a is a graph pertaining to Magainin I (indicated by X) and its deletion analogues. (The deletion analogue wherein amino acid 23 omitted was not tested). FIG. 1b is a graph pertaining to Magainin II (indicated by X) and its deletion analogues. In both graphs, Z is a control of medium plus cells.
(§4) The degree of peptide activity was determined by comparing the deletion analogs with uninhibited growth of the control cells over a six-hour period. […] As listed in Table 1, M1C is Magainin I, C-terminal carboxyl carboxy-terminated), whereas M2A, is Magainin II, C-terminal amide (amide-terminated). The letter and number code after each M1C or M2A peptide indicates the amino acid residue deleted from the particular deletion analogue of Magainin I carboxY-terminated) or Magainin II (amide-terminated).

Staphylococcus epidermis = assay: Antimicrobial assay: growth inhibition in 96-well plates, O.D.620 at six hours; type: cell-based; conditions: for % Inhibit, S. epidermis: 1.0×10^6 CFU/ml; for Effective Growth Inhibition Conc., S. epidermis: concentration at which the reported % inhibition (greater than 80%) was found, 100% at next higher concentration if below 100%
Protocol: as §1, §2, §3
FIG. 2 is a graph of the measurements of 1/(change in optical density) for wells containing Magainin I or Magainin II peptides or their deletion analogues and S. epidermis. FIG. 2a is a graph pertaining to Magainin I (indicated by X) and its deletion analogues. (The deletion analogue wherein amino acid 23 was deleted was not tested.) FIG. 2b is a graph pertaining to Magainin II (indicated by X) and its deletion analogues. In both graphs, Z is a control of medium plus cells. The measurements of 1/(change in optical density) as measured for the Magainin I and Magainin II peptides and their deletion analogues can be correlated to a measurement of their effectivness against E. coli and S. epidermis.
as §4

E. coli = assay: Kinetics of microbial killing; type: cell-based; conditions: peptide 25 μg/ml; E. coli 1.0×10^6 CFU/ml; 37° C.
Protocol: Dissolved peptide preparations of amide-terminated Magainin II, amide-terminated Magainin II with glycine (amino acid 18) deleted, and amide-terminated Magainin II with glutamic acid (amino acid 19) deleted were added to test tubes containing E. coli (1.0×10^6 CFU/ml) to a final peptide concentration of 25 μg/ml. At the time points of 15, 30, 45, and 60 minutes after the addition, indicated in FIG. 3, 10.0 µl were removed from each tube and sequentially diluted by a factor of ten four times in LB medium. The number of bacteria at each time point was determined by plating 10.0 μl of the 10^-2, 10^-3, and 10^-4 dilutions. The log of the number of bacteria from these dilutions at each time point was determined, and was plotted on the graph in FIG. 3. Two controls, one with medium alone and one with no peptides were both incubated along with the tubes containing cells and peptides. The tubes as well as the agar plates used were incubated at 37° C.

## GIGKFHSAGKFGKAFVGEIMKS [M1C-L^6]
Human red blood cells
  % Hemolysis of Human Red Blood Cells: 0%

## GIGKFHSAKKFGKAFVGEIMNS-NH2 [M2A-L^6]
Escherichia coli; peptide 100 μg/ml
  % Inhibit, E. coli: 0%
Staphylococcus epidermis; peptide 100 μg/ml
  % Inhibit, S. epidermis: 0%
Human red blood cells
  % Hemolysis of Human Red Blood Cells: 1%

## GIGKFLHSAGKFGKAFGEIMKS [M1C-V^17]
Human red blood cells
  % Hemolysis of Human Red Blood Cells: 1%

## GIGKFLHSAGKFGKAFVGEIKS [M1C-M^21]
Human red blood cells
  % Hemolysis of Human Red Blood Cells: 1%

## GIGKFLHSAGKFGKAFVGEIMK [M1C-S^23]
Human red blood cells
  % Hemolysis of Human Red Blood Cells: 0%

## GIGKFLHSAGKFGKAFVGEIMKS [Peptide M1C, Magainin I, reference compound]
Human red blood cells
  % Hemolysis of Human Red Blood Cells: 2%

## GIGKFLHSAGKFGKAFVGEMKS [M1C-I^20]
Human red blood cells
  % Hemolysis of Human Red Blood Cells: 1%

## GIGKFLHSAGKFGKAFVGIMKS [M1C-E^19]
Human red blood cells
  % Hemolysis of Human Red Blood Cells: 1%

## GIGKFLHSAKKFGKAFGEIMNS-NH2 [M2A-V^17]
Escherichia coli
  Effective Growth Inhibition Conc., E. coli: 50 µg/mL
Escherichia coli; peptide 50 μg/ml
  % Inhibit, E. coli: 87%
Staphylococcus epidermis; peptide 100 μg/ml
  % Inhibit, S. epidermis: 0%
Human red blood cells
  % Hemolysis of Human Red Blood Cells: 0%

## GIGKFLHSAKKFGKAFVEIMNS-NH2 [M2A-G^18]
Escherichia coli
  Effective Growth Inhibition Conc., E. coli: 10 µg/mL
Escherichia coli; listed as M2A-G^3
  Effective Growth Inhibition Conc., E. coli: 100 µg/mL
Escherichia coli; listed as M2A-G^13
  Effective Growth Inhibition Conc., E. coli: 25 µg/mL
Escherichia coli; peptide 10 μg/ml
  % Inhibit, E. coli: 94%
Escherichia coli; peptide 25 μg/ml
  % Inhibit, E. coli: 89%
Escherichia coli; peptide 100 μg/ml
  % Inhibit, E. coli: 0%
Escherichia coli; peptide 100 μg/ml, listed as M2A-G^3
  % Inhibit, E. coli: 93%
Staphylococcus epidermis
  Effective Growth Inhibition Conc., S. epidermis: 10 µg/mL
Staphylococcus epidermis; peptide 10 μg/ml
  % Inhibit, S. epidermis: 89%
Staphylococcus epidermis; peptide 50 μg/ml
  % Inhibit, S. epidermis: 80%
Staphylococcus epidermis; peptide 100 μg/ml
  % Inhibit, S. epidermis: 0%
E. coli
  time until all E. coli cells were killed after addition of the peptide: ≤ 15 min

## GIGKFLHSAKKFGKAFVGEIMN-NH2 [M2A-S^23]
Escherichia coli
  Effective Growth Inhibition Conc., E. coli: 25 µg/mL
Escherichia coli; listed as M2A-S^8
  Effective Growth Inhibition Conc., E. coli: 75 µg/mL
Escherichia coli; peptide 25 μg/ml
  % Inhibit, E. coli: 100%
Escherichia coli; peptide 75 μg/ml
  % Inhibit, E. coli: 90%
Staphylococcus epidermis; peptide 100 μg/ml
  % Inhibit, S. epidermis: 0%

## GIGKFLHSAKKFGKAFVGEIMNS [Peptide M2-Carboxy, Magainin II, reference compound]
Escherichia coli; peptide 50 μg/ml
  % Inhibit, E. coli: 100%

## GIGKFLHSAKKFGKAFVGEIMNS-NH2 [Peptide M2A, reference compound]
Escherichia coli
  Effective Growth Inhibition Conc., E. coli: 25 µg/mL
Escherichia coli; peptide 25 μg/ml
  % Inhibit, E. coli: 100%
Staphylococcus epidermis
  Effective Growth Inhibition Conc., S. epidermis: 25 µg/mL
Staphylococcus epidermis; peptide 25 μg/ml
  % Inhibit, S. epidermis: 93%
E. coli
  time until all E. coli cells were killed after addition of the peptide: much slower
Human red blood cells
  % Hemolysis of Human Red Blood Cells: 4%

## GIGKFLHSAKKFGKAFVGEIMS-NH2 [M2A-N^22]
Escherichia coli
  Effective Growth Inhibition Conc., E. coli: 25 µg/mL
Escherichia coli; peptide 25 μg/ml
  % Inhibit, E. coli: 100%
Staphylococcus epidermis
  Effective Growth Inhibition Conc., S. epidermis: 75 µg/mL
Staphylococcus epidermis; peptide 75 μg/ml
  % Inhibit, S. epidermis: 100%
Human red blood cells
  % Hemolysis of Human Red Blood Cells: 2%

## GIGKFLHSAKKFGKAFVGEINS-NH2 [M2A-M^21]
Escherichia coli
  Effective Growth Inhibition Conc., E. coli: 25 µg/mL
Escherichia coli; peptide 25 μg/ml
  % Inhibit, E. coli: 95%
Staphylococcus epidermis
  Effective Growth Inhibition Conc., S. epidermis: 75 µg/mL
Staphylococcus epidermis; peptide 75 μg/ml
  % Inhibit, S. epidermis: 90%
Human red blood cells
  % Hemolysis of Human Red Blood Cells: 0%

## GIGKFLHSAKKFGKAFVGEMNS-NH2 [M2A-I^20]
Escherichia coli
  Effective Growth Inhibition Conc., E. coli: 25 µg/mL
Escherichia coli; peptide 25 μg/ml
  % Inhibit, E. coli: 84%
Escherichia coli; peptide 100 μg/ml
  % Inhibit, E. coli: 0%
Staphylococcus epidermis; peptide 100 μg/ml
  % Inhibit, S. epidermis: 0%
Human red blood cells
  % Hemolysis of Human Red Blood Cells: 0%

## GIGKFLHSAKKFGKAFVGIMNS-NH2 [M2A-E^19]
Escherichia coli
  Effective Growth Inhibition Conc., E. coli: 10 µg/mL
Escherichia coli; peptide 10 μg/ml
  % Inhibit, E. coli: 92%
Staphylococcus epidermis
  Effective Growth Inhibition Conc., S. epidermis: 10 µg/mL
Staphylococcus epidermis; peptide 10 μg/ml
  % Inhibit, S. epidermis: 89%
E. coli
  time until all E. coli cells were killed after addition of the peptide: ≤ 15 min
Human red blood cells
  % Hemolysis of Human Red Blood Cells: 0%

## GIGKFLHSAKKFGKAVGEIMNS-NH2 [M2A-F^16]
Escherichia coli
  Effective Growth Inhibition Conc., E. coli: 100 µg/mL
Escherichia coli; peptide 100 μg/ml
  % Inhibit, E. coli: 92%
Escherichia coli; peptide 100 μg/ml, listed as M2A-F^5
  % Inhibit, E. coli: 0%
Escherichia coli; peptide 100 μg/ml, listed as M2A-F^12
  % Inhibit, E. coli: 0%
Staphylococcus epidermis; peptide 100 μg/ml
  % Inhibit, S. epidermis: 0%
Human red blood cells
  % Hemolysis of Human Red Blood Cells: 1%

## GIGKFLHSAKKFGKFVGEIMNS-NH2 [M2A-A^15]
Escherichia coli
  Effective Growth Inhibition Conc., E. coli: 10 µg/mL
Escherichia coli; listed as M2A-A^9
  Effective Growth Inhibition Conc., E. coli: 75 µg/mL
Escherichia coli; peptide 10 μg/ml
  % Inhibit, E. coli: 95%
Escherichia coli; peptide 75 μg/ml
  % Inhibit, E. coli: 82%
Staphylococcus epidermis
  Effective Growth Inhibition Conc., S. epidermis: 25 µg/mL
Staphylococcus epidermis; peptide 25 μg/ml
  % Inhibit, S. epidermis: 90%
Staphylococcus epidermis; peptide 100 μg/ml
  % Inhibit, S. epidermis: 0%

## GIGKFLSAGKFGKAFVGEIMKS [M1C-H^7]
Human red blood cells
  % Hemolysis of Human Red Blood Cells: 0%

## GIGKFLSAKKFGKAFVGEIMNS-NH2 [M2A-H^7]
Escherichia coli
  Effective Growth Inhibition Conc., E. coli: 100 µg/mL
Escherichia coli; peptide 100 μg/ml
  % Inhibit, E. coli: 90%
Staphylococcus epidermis; peptide 100 μg/ml
  % Inhibit, S. epidermis: 0%
Human red blood cells
  % Hemolysis of Human Red Blood Cells: 0%
